Assay results: article PMC2923838 (Chemical research in toxicology, 2009)

Target: D-amino acid oxidase (DAAO) (Sus scrofa, UniProt P00371)
Assay: […] benzoate with porcine DAAO and D-Trp in […] cells
Format: cell-based
Details: read-out: % attenuation at 20 mM

D-amino acid oxidase (DAAO), sequence (P00371 whole entry): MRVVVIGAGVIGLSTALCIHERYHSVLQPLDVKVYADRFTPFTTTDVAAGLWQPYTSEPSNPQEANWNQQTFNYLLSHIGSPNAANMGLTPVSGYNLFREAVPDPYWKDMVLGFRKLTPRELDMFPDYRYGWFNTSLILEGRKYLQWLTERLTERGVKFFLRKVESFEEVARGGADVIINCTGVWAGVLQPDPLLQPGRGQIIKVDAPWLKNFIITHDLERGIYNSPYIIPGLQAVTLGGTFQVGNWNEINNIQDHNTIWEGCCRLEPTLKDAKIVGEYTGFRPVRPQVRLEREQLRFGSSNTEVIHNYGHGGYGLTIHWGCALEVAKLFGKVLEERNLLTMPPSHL

`O=C(O)c1ccccc1` [sodium benzoate] showed an inhibition at 20000 µM of 76%.
